The source of these data is ChEMBL document CHEMBL5352464, “Structure based design and evaluation of benzoheterocycle derivatives as potential dual HIV-1 protease and reverse transcriptase inhibitors” (Eur J Med Chem, 2023).

Each structure is given as a SMILES string.

The first assay addresses Human immunodeficiency virus type 1 reverse transcriptase (Human immunodeficiency virus 1) (UniProt Q72547). As to the kind of experiment: Inhibition of HIV-1 NL4-3 reverse transcriptase at 100 uM by RT-PCR analysis relative to control.
Settings: not given
Take `COc1ccc(S(=O)(=O)N(CC(C)C)C[C@@H](O)[C@H](Cc2ccccc2)NC(=O)c2cc3ccc(O)cc3o2)cc1`: the inhibition (as a rule, the relative decrease from the control value, in per cent) was under 20%.

Compound `CC(C)CN(C[C@@H](O)[C@H](Cc1ccccc1)NC(=O)c1cc2ccc(O)cc2o1)S(=O)(=O)c1ccc(N)cc1` gave an inhibition of under 20%.

The compound `CC(C)CN(C[C@@H](O)[C@H](Cc1ccccc1)NC(=O)c1cc2ccccc2o1)S(=O)(=O)c1ccc(N)cc1` showed an inhibition of under 20%.

`COc1ccc(S(=O)(=O)N(CC(C)C)C[C@@H](O)[C@H](Cc2ccccc2)NC(=O)c2cc3ccccc3[nH]2)cc1` gave an inhibition of under 20%.

The compound `COc1ccc(S(=O)(=O)N(CC(C)C)C[C@@H](O)[C@H](Cc2ccccc2)NC(=O)c2cc3cc(O)ccc3[nH]2)cn1` yielded an inhibition of under 20%.

Consider `COc1ccc(S(=O)(=O)N(CC(C)C)C[C@@H](O)[C@H](Cc2ccccc2)NC(=O)c2coc3ccccc23)cc1`, for which the inhibition is under 20%.

In turn, `COc1ccc(S(=O)(=O)N(CC(C)C)C[C@@H](O)[C@H](Cc2ccccc2)NC(=O)c2cc3ccc(O)cc3[nH]2)cn1` returned an inhibition of under 20%.

Regarding `COc1ccc(S(=O)(=O)N(CC(C)C)C[C@@H](O)[C@H](Cc2ccccc2)NC(=O)c2c[nH]c3ccccc23)cc1`, the inhibition is under 20%.

`COc1ccc(S(=O)(=O)N(CC(C)C)C[C@@H](O)[C@H](Cc2ccccc2)NC(=O)c2cc3cc(O)ccc3[nH]2)cc1` returned an inhibition of under 20%.

On to `COc1ccc(S(=O)(=O)N(CC(C)C)C[C@@H](O)[C@H](Cc2ccccc2)NC(=O)c2cc3cc(O)ccc3o2)cc1`, for which the inhibition was under 20%.

Compound `CC(C)CN(C[C@@H](O)[C@H](Cc1ccccc1)NC(=O)c1cc2cc(O)ccc2o1)S(=O)(=O)c1ccc(N)cc1` returned an inhibition of under 20%.

`COc1ccc(S(=O)(=O)N(CC(C)C)C[C@@H](O)[C@H](Cc2ccccc2)NC(=O)c2cc3cc(N)ccc3o2)cc1` gave an inhibition of under 20%.

The subject of a further assay is Human immunodeficiency virus 1. As to the kind of experiment: Antiviral activity against VSV-G pseudotyped HIV1 NL4-3 infected in HEK293T cells assessed as inhibition of late stage viral replication pre-infected with cells for 5 hrs followed by compound treatment for 48 hrs and further infected with human SupT1 cells for 48 hrs by luciferase based analysis. As to conditions: Human immunodeficiency virus 1, NL4-3, HEK-293T. The format is functional, organism-based.
Take `O=C1Nc2ccc(Cl)cc2[C@@](C#CC2CC2)(C(F)(F)F)O1` [EFAVIRENZ]: the EC50 (usually the concentration at which the effect is half-maximal) was over 100 µM.

As to `CC(C)CN(C[C@@H](O)[C@H](Cc1ccccc1)NC(=O)O[C@H]1CO[C@H]2OCC[C@H]21)S(=O)(=O)c1ccc(N)cc1`, the concentration for a half-maximal effect (EC50) was 0.002 µM.

The target of the next assay is Human immunodeficiency virus type 1 protease (Human immunodeficiency virus 1, UniProt Q72874). The assay is described as follows: Inhibition of HIV-1 protease expressed in Escherichia coli using Arg-Glu-(EDANS)-Ser-Gln-Asn-Tyr-Pro-Ile-Val-Gln-Lys-([…])-Arg as substrate preincubated with compound for 20 to 30 mins followed by substrate addition and measured after 10 mins by FRET analysis.
Settings: not given
For `COc1ccc(S(=O)(=O)N(CC(C)C)C[C@@H](O)[C@H](Cc2ccccc2)NC(=O)c2cc3ccc(O)cc3o2)cc1`, the IC50 (in general, the concentration that inhibits the measured activity by half) was 2 µM.

In the case of `CC(C)CN(C[C@@H](O)[C@H](Cc1ccccc1)NC(=O)c1cc2ccc(O)cc2o1)S(=O)(=O)c1ccc(N)cc1`, the IC50 was found to be 3.05 µM.

Regarding `CC(C)CN(C[C@@H](O)[C@H](Cc1ccccc1)NC(=O)c1cc2ccccc2o1)S(=O)(=O)c1ccc(N)cc1`, the IC50 amounted to 16.3 µM.

Regarding `COc1ccc(S(=O)(=O)N(CC(C)C)C[C@@H](O)[C@H](Cc2ccccc2)NC(=O)c2cc3ccccc3[nH]2)cc1`, the IC50 amounted to 7.51 µM.

In the case of `COc1ccc(S(=O)(=O)N(CC(C)C)C[C@@H](O)[C@H](Cc2ccccc2)NC(=O)c2cc3cc(O)ccc3[nH]2)cn1`, the IC50 is 0.74 µM.

Consider `COc1ccc(S(=O)(=O)N(CC(C)C)C[C@@H](O)[C@H](Cc2ccccc2)NC(=O)c2coc3ccccc23)cc1`, for which the IC50 is 8.96 µM.

As to `COc1ccc(S(=O)(=O)N(CC(C)C)C[C@@H](O)[C@H](Cc2ccccc2)NC(=O)c2cc3ccc(O)cc3[nH]2)cn1`, the IC50 turned out to be 0.46 µM.

Take `COc1ccc(S(=O)(=O)N(CC(C)C)C[C@@H](O)[C@H](Cc2ccccc2)NC(=O)c2c[nH]c3ccccc23)cc1`: the IC50 turned out to be 12.9 µM.

As to `COc1ccc(S(=O)(=O)N(CC(C)C)C[C@@H](O)[C@H](Cc2ccccc2)NC(=O)c2cc3cc(O)ccc3[nH]2)cc1`, the IC50 came to 0.58 µM.

As to `COc1ccc(S(=O)(=O)N(CC(C)C)C[C@@H](O)[C@H](Cc2ccccc2)NC(=O)c2cc3cc(O)ccc3o2)cc1`, the IC50 stood at 2.38 µM.

Turning to `CC(C)CN(C[C@@H](O)[C@H](Cc1ccccc1)NC(=O)c1cc2cc(O)ccc2o1)S(=O)(=O)c1ccc(N)cc1`, the IC50 worked out at 4.53 µM.

Turning to `COc1ccc(S(=O)(=O)N(CC(C)C)C[C@@H](O)[C@H](Cc2ccccc2)NC(=O)c2cc3cc(N)ccc3o2)cc1`, the IC50 worked out at 5.3 µM.

A further assay deals with Human immunodeficiency virus 1. As to the kind of experiment: Antiviral activity against wild-type HIV1 NL4-3 infected in human SUP-T1 cells assessed as inhibition of viral replication pre-infected with compound for 1 day followed by compound washout and replaced with fresh medium for 48 hrs and further infected with human TZM-bl cells by lucifrease based analysis. Type of assay: functional, organism-based. As to conditions: Human immunodeficiency virus 1, NL4-3, SUP-T1.
As for `CC(C)CN(C[C@@H](O)[C@H](Cc1ccccc1)NC(=O)O[C@H]1CO[C@H]2OCC[C@H]21)S(=O)(=O)c1ccc(N)cc1`, the EC50 amounted to 0.002 µM.
